Reference: patent US20240165152A1, “COMPOSITIONS AND METHODS FOR ACTIVATING NK CELLS” (The Regents of the University of California, priority 2017, published 2024)

Legend:
OSCSCs = assay: Cell death (PI staining) of OSCSCs differentiated with NK supernatants after chemotherapeutic drugs; format: cell-based, human
Method: FIG. 67A-FIG. 67B show CDDP or Paclitaxel with and without NAC induce significant cell death in OSCSCs differentiated with NK-supernatants and not in poorly-differentiated tumors. Highly purified NK cells were treated with the combination of IL-2 (1000 U/mL) and anti-CD16 mAb ([…]) for 18 hours, after which the NK supernatants were added to OSCSCs in the presence of anti-TNF-a (1:100) and anti-IFN-g (1:100) for a period of 5 days. Thereafter, OSCSCs were detached and treated with/without Cisplatin for 18-24 hours. The viability of OSCSCs was then determined using PI staining and flow cytometric analysis. One of 3 representative experiments is shown in this figure (FIG. 67A). OSCSCs were treated with the supernatants from NK cells as described in FIG. 67A. Afterwards, tumors were detached and treated with/without NAC ([…]) for 24 hours, followed by treatment with Paclitaxel for 18-24 hours. OSCSCs viability was determined by PI staining and flow cytometric analysis. One of 3 representative experiments is shown in this figure (FIG. 67B).
Staining was performed by labeling the cells with antibodies or propidium iodide, as described previously. The cells were washed twice with ice-cold PBS containing 1% BSA. Predetermined optimal concentrations of specific human monoclonal antibodies were added to 1×10^4 cells in 50 pl of cold-BSA and cells were incubated on ice for 30 min. Thereafter cells were washed in cold PBS-BSA and brought to 500 pl with PBS-BSA. For cell death assay 1×10^4 cells in 50 pl of cold-BSA were stained with 8 µg/ml propidium iodide and cells were incubated on ice for 10 min, and brought to 500 pl with PBS-BSA. Flow cytometry analysis was performed using Beckman 485 Coulter Epics XL cytometer (Brea, CA) and results were analyzed in FlowJo vX software (Ashland, OR).
NK cells were treated with a combination of anti-CD16 monoclonal antibody (3 pg/mL) and IL-2 (1,000 U/mL) for 18 hours before supernatants were removed and used for differentiation experiments. The amounts of IFN-y produced by activated NK cells were measured with IFN-γ ELISA (Biolegend, CA, USA). […]

OSCCs = assay: Cell death of OSCCs after chemotherapeutic drugs; format: cell-based, human; conditions: patient-derived differentiated oral tumor

For `CC(=O)N[C@@H](CS)C(=O)O` [NAC], the “cell death of OSCSCs differentiated with NK supernatants” value (shortened to “cell death of OSCSCs differentiated”) (OSCSCs) was “significantly increased”.

For `CC(=O)O[C@H]1C(=O)[C@@]2(C)[C@H]([C@H](OC(=O)c3ccccc3)[C@]3(O)C[C@H](OC(=O)[C@H](O)[C@@H](NC(=O)c4ccccc4)c4ccccc4)C(C)=C1C3(C)C)[C@]1(OC(C)=O)CO[C@@H]1C[C@@H]2O` [paclitaxel], the “cell death of OSCSCs differentiated” value (OSCSCs) was “higher cell death”.

For `[NH2][Pt]([NH2])([Cl])[Cl]` [CDDP, Cisplatin], the “cell death of OSCCs” value (OSCCs) was “higher cell death” and the “cell death of OSCSCs differentiated” value (OSCSCs) was “significant susceptibility”.
